The target in test [1] is Serine/threonine-protein kinase PAK 4 (Homo sapiens, UniProt O96013). Briefly: Inhibition of Pak4.
For test [2], the target named is Glycogen synthase kinase-3 beta (Homo sapiens, UniProt P49841). As to the kind of experiment: Inhibition of GSK3-beta.
In test [3] the target is Serine/threonine-protein kinase pim-1 (Homo sapiens, UniProt P11309). Briefly: Inhibition of Pim1.
Test [4] has as its target Vascular endothelial growth factor receptor 2 (Homo sapiens, UniProt P35968). Briefly: Inhibition of KDR.
In test [5] the target is Rho-associated protein kinase 2 (Homo sapiens, UniProt O75116). As to the kind of experiment: Inhibition of Rock2.
Rho-associated protein kinase 2, sequence (O75116 whole entry): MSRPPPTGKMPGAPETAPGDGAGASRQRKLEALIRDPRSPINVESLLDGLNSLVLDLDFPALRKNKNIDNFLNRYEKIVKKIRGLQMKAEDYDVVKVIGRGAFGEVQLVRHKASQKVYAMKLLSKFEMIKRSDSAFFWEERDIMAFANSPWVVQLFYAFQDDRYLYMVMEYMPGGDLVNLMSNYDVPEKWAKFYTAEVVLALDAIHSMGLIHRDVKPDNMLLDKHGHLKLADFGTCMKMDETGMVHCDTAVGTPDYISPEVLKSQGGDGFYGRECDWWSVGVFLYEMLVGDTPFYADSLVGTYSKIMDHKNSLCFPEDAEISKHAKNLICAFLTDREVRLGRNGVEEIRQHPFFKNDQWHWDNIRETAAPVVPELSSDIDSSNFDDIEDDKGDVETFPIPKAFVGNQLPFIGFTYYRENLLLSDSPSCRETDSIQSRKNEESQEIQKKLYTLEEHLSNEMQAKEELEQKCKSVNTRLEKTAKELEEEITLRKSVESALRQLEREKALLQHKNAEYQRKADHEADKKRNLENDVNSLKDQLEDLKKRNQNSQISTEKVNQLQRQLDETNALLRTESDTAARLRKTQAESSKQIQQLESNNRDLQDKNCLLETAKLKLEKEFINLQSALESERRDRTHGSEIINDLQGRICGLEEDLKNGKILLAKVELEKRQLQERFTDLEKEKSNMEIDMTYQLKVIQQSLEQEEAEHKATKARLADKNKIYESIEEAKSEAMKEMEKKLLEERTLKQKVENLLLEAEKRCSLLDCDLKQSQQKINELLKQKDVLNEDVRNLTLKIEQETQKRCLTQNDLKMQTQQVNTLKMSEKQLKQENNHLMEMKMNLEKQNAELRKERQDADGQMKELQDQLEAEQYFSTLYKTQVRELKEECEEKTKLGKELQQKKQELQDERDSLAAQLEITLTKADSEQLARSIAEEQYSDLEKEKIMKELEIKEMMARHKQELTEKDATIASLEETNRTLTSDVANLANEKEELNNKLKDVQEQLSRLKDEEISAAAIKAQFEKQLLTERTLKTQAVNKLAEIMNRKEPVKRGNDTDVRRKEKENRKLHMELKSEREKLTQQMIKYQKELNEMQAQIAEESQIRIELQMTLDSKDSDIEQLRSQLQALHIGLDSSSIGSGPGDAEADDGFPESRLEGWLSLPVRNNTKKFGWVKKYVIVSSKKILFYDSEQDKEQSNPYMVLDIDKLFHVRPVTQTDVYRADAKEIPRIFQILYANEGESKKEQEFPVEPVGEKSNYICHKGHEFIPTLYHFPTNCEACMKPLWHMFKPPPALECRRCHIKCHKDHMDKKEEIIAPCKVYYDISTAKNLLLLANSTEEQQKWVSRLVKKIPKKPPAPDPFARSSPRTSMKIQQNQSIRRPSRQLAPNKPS
For test [6], the target named is Epidermal growth factor receptor (Homo sapiens, UniProt P00533). As to the kind of experiment: Inhibition of EGFR.
Epidermal growth factor receptor, sequence (P00533 whole entry): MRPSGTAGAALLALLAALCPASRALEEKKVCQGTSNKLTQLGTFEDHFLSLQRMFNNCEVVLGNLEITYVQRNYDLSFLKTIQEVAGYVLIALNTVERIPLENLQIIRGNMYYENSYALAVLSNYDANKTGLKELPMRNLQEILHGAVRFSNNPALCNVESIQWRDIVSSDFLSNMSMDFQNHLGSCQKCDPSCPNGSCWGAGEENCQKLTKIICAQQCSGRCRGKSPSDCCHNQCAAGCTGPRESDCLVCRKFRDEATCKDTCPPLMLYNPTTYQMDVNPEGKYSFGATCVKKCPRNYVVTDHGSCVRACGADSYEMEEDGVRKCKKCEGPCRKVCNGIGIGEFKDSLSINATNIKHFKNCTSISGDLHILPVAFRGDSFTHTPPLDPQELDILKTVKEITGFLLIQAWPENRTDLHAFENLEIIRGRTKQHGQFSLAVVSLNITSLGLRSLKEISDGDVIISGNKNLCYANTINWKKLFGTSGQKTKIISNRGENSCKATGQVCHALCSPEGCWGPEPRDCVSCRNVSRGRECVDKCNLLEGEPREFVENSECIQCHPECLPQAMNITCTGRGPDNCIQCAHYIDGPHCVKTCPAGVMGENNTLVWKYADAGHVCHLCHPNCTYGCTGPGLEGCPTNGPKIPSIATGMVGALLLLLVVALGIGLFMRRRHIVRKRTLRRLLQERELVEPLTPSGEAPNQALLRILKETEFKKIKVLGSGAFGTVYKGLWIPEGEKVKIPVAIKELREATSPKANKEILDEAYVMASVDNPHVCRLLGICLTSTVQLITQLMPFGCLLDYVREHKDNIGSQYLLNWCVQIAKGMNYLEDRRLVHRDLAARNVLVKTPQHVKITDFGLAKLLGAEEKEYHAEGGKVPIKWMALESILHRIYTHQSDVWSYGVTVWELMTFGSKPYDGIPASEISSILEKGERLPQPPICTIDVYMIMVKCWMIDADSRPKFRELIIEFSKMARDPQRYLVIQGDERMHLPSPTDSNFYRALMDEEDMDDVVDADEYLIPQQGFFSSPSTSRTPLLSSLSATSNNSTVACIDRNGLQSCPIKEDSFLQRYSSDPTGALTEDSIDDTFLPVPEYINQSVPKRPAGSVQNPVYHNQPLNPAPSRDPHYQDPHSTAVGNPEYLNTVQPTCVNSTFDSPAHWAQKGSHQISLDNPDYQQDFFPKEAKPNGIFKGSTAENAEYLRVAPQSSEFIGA
The target in test [7] is Tyrosine-protein kinase JAK2 (Homo sapiens, UniProt O60674). As to the kind of experiment: Inhibition of JAK2.
Tyrosine-protein kinase JAK2, sequence (O60674 whole entry): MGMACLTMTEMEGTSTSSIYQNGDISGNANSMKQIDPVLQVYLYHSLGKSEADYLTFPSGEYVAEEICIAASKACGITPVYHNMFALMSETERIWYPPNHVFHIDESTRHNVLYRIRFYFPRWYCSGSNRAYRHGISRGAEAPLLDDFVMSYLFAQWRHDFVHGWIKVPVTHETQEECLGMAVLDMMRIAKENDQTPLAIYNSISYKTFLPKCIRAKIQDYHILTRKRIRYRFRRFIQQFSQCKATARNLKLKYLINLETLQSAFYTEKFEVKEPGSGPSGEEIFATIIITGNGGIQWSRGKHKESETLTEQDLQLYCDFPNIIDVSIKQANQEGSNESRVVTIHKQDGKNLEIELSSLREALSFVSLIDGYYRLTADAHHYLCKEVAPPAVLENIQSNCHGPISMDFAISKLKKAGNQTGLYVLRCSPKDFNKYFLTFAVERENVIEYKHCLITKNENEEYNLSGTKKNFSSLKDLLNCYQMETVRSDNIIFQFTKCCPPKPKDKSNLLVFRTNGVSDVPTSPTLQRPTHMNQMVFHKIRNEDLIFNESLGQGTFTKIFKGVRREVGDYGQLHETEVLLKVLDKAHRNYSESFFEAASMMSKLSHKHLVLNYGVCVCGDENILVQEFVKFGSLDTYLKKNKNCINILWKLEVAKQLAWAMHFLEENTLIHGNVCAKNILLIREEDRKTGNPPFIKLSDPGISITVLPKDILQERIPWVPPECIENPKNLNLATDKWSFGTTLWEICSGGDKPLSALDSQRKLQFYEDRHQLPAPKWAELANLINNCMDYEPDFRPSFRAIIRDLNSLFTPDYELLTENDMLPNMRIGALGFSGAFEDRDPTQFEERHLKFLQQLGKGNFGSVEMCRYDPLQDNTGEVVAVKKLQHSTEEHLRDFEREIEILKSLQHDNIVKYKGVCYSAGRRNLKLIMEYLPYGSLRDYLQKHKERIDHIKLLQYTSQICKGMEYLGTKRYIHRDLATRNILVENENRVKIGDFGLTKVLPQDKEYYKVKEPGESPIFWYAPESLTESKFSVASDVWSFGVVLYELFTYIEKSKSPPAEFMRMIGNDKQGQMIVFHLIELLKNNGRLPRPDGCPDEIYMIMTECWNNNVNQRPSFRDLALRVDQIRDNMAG

Vascular endothelial growth factor receptor 2, sequence (P35968 whole entry): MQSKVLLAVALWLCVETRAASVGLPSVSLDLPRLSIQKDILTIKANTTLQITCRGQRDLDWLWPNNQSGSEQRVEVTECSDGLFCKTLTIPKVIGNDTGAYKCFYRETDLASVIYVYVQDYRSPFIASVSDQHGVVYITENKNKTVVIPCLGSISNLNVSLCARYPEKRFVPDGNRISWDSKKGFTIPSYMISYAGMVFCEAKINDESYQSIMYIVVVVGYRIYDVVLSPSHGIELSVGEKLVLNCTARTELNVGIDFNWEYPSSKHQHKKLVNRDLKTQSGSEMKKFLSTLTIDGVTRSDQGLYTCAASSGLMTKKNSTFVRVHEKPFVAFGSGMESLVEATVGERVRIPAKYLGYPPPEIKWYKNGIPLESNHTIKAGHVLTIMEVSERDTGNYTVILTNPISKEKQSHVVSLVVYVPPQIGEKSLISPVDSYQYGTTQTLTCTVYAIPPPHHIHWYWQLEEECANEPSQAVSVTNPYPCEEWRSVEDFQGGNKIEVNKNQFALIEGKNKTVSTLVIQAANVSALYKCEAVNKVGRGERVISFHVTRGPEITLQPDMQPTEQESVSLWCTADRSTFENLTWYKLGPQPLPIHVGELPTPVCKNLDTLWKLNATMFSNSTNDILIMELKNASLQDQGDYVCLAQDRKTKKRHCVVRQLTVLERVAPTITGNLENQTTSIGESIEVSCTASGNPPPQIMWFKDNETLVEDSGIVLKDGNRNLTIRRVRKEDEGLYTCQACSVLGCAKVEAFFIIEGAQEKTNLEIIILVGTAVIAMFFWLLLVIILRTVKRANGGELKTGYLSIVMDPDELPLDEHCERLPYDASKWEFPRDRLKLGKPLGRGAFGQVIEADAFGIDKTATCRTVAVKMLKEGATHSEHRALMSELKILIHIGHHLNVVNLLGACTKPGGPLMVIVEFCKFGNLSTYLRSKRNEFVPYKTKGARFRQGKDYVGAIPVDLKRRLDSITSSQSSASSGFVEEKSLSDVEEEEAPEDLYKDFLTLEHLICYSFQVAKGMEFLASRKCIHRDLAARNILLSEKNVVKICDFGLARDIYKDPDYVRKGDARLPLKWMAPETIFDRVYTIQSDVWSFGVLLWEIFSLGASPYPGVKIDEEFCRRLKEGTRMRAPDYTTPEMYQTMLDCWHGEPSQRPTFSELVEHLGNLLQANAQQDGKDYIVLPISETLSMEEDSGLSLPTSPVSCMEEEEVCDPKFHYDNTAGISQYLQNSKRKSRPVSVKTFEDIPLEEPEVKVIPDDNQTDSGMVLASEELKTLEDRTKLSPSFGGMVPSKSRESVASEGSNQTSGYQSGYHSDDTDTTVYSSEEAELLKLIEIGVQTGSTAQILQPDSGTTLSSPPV

Take `c1ccc(-c2c(-c3ccc4[nH]ncc4c3)nc3ncccn23)cc1`: the inhibitory constant (Ki) is > 3750 nM in test [1]; 10 nM in test [2]; 339 nM in test [3]; > 8880 nM in test [4]; 6 nM in test [5].

Consider `Cc1nc(-c2ccc3[nH]ncc3c2)cs1`, for which the inhibition constant Ki is > 3750 nM in test [1]; 2860 nM in test [2]; 4160 nM in test [3]; > 8880 nM in test [4]; 513 nM in test [5].

For `Nc1nc(-c2ccc3[nH]ncc3c2)cs1`, the Ki in test [1] is > 3750 nM; in test [2], 4470 nM; in test [3] it was 2900 nM; in test [4] it was > 8880 nM; in test [5], 909 nM.

Regarding `CCNc1nc(-c2ccc3[nH]ncc3c2)cs1`, the Ki in test [1] was > 3750 nM; in test [2], 3930 nM; in test [3] it was 1950 nM; in test [4], > 8880 nM; in test [5], 888 nM.

With `c1ccc(CCNc2nc(-c3ccc4[nH]ncc4c3)cs2)cc1`, the Ki in test [1] is > 3750 nM; in test [2], > 5450 nM; in test [3], > 8750 nM; in test [4], > 8880 nM; in test [5] it was 364 nM.

Regarding `c1ccc(Nc2nc(-c3ccc4[nH]ncc4c3)c(-c3ccccc3)s2)cc1`, the Ki is > 3750 nM in test [1]; > 5450 nM in test [2]; > 8750 nM in test [3]; > 8880 nM in test [4]; 1410 nM in test [5].

On to `c1ccc(CNc2nc(-c3ccc4[nH]ncc4c3)c(-c3ccccc3)s2)cc1`, for which the Ki is > 3750 nM in test [1]; 3400 nM in test [2]; > 8750 nM in test [3]; > 8880 nM in test [4]; 822 nM in test [5].

Take `c1ccn2c(NC3CCCCC3)c(-c3ccc4[nH]ncc4c3)nc2c1`: the inhibitory constant (Ki) worked out at 2610 nM in test [2], 2310 nM in test [3] and 2480 nM in test [5].

The compound `c1cn2c(NC3CCCCC3)c(-c3ccc4[nH]ncc4c3)nc2cn1` registered a Ki in test [3] of 1850 nM.

Consider `CCCCNc1c(-c2ccc3[nH]ncc3c2)nc2ncccn12`, for which the inhibition constant Ki is > 3750 nM in test [1]; 19 nM in test [2]; 114 nM in test [3]; > 8880 nM in test [4]; 116 nM in test [5].

Turning to `Clc1ccc(Nc2c(-c3ccc4[nH]ncc4c3)nc3ncccn23)cc1`, the Ki in test [1] is > 3750 nM; in test [2], 121 nM; in test [3], > 8750 nM; in test [4], > 8880 nM; in test [5], 1560 nM.

`c1cn2c(NC3CCCCC3)c(-c3ccc4[nH]ncc4c3)nc2s1`: the inhibitory constant (Ki) in test [2] was 642 nM; in test [3] it was 1290 nM; in test [4] it was 5340 nM; in test [5] it was 622 nM.

For the compound `CN(C)CCn1cnc(-c2ccc(F)cc2)c1-c1ccc2[nH]ncc2c1`, the Ki in test [1] was > 3750 nM; in test [2], > 5450 nM; in test [6] it was 67 nM; in test [7], > 1450 nM; in test [3], > 8750 nM; in test [4], > 8880 nM. The inhibition constant (Ki) in test [5] was > 6000 nM.

`Fc1ccc(-c2ncn(CCCN3CCOCC3)c2-c2ccc3[nH]ncc3c2)cc1`: the Ki was > 3750 nM in test [1]; > 5450 nM in test [2]; 27 nM in test [6]; > 1450 nM in test [7]; > 8750 nM in test [3]; > 8880 nM in test [4]. The Ki in test [5] is > 6000 nM.

For the compound `Fc1ccc(-c2ncn(C3CCN(Cc4ccccc4)C3)c2-c2ccc3[nH]ncc3c2)cc1` (centres undefined), the Ki in test [1] was > 3750 nM; in test [2], > 5450 nM; in test [6] it was 8 nM; in test [7] it was > 1450 nM; in test [3], > 8750 nM; in test [4], > 8880 nM. The Ki in test [5] was > 6000 nM.
